Assay results published in ChEMBL document CHEMBL1151521, “Balanced AT1 and AT2 angiotensin II antagonists. III. potent and orally active 5--ketosulfoxide imidazolyl biphenyl sulfonylureas” (Bioorg Med Chem Lett, 1995).

How the values were obtained:
Rattus norvegicus [1] = test: Compound was evaluated in vivo, after peroral administration for the inhibition of the pressor response induced by A II (0.75 ug/kg) in normotensive pithed rats; format: functional; conditions: for ED50: Rattus norvegicus, po, read-out: ID50 (the source's name)
Rattus norvegicus [2] = test: Compound was evaluated in vivo, after intravenous administration for the inhibition of the pressor response induced by A II (0.75 ug/kg) in normotensive pithed rats; format: functional; conditions: read-out: ID50 (the source's name)
[3] = target: T1, Angiotensin II receptor (AT-1) type-1 (Rattus norvegicus, UniProt P29089+P25095); test: Concentration required for 50% inhibition of [125I]- AII binding to rat liver membrane preparation (AT1)
T1 sequence (P29089 whole entry): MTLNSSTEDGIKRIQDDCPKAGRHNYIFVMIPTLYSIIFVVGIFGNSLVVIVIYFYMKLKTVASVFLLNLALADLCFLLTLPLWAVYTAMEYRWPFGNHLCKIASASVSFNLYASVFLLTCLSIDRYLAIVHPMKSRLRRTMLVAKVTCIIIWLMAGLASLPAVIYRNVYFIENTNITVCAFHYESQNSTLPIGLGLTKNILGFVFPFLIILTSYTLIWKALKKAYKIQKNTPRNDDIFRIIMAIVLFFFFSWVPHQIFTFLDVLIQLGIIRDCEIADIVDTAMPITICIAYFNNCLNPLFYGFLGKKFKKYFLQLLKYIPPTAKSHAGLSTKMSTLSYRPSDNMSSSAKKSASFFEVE
T1 sequence (P25095 whole entry): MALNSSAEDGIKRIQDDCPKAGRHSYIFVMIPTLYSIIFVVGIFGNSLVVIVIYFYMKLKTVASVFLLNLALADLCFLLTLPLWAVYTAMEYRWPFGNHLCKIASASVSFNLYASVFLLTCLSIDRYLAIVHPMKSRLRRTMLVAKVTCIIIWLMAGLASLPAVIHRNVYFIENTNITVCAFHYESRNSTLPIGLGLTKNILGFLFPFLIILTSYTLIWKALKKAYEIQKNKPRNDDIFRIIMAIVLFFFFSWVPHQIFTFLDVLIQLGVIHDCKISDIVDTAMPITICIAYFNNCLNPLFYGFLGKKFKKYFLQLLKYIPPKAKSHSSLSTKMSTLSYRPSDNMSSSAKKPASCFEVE

[4] = Concentration required for 50% inhibition of [125I]- AII binding to rabbit uterus membrane preparation (AT2); format: tissue-based, Oryctolagus cuniculus

Row | SMILES | IC50 [3] | IC50 [4] | ED50 (Rattus norvegicus [1]) | ED50 (Rattus norvegicus [2]) | ID50 (Rattus norvegicus [1])
1 | CCCc1nc(SC)c(C(=O)C[S+]([O-])c2ccccc2)n1Cc1ccc(-c2ccccc2S(=O)(=O)NC(=O)NCC2CCCCC2)cc1 (configuration not stated) | 0.3 nM | 4 nM | 3.1 mg/kg | – | –
2 | CCCc1nc(SC)c(C(=O)C[S+]([O-])c2ccccc2)n1Cc1ccc(-c2ccccc2S(=O)(=O)NC(=O)NCc2cccs2)cc1 (configuration not stated) | 0.02 nM | 3.5 nM | 1.4 mg/kg | – | –
3 | CCCCc1nc(SC)c(C(=O)CS(=O)(=O)c2ccccc2)n1Cc1ccc(-c2ccccc2S(=O)(=O)NC(=O)NCc2ccccc2)cc1 | 0.04 nM | 1.7 nM | > 3 mg/kg | 0.02 mg/kg | –
4 | CCCCc1nc(SC)c(C(C)(O)C(=O)O)n1Cc1ccc(-c2ccccc2S(=O)(=O)NC(=O)NCCC)cc1 (configuration not stated) | – | 8.2 nM | – | – | –
5 | CCCc1nc(SC)c(C(=O)C[S+]([O-])c2ccccc2)n1Cc1ccc(-c2ccccc2S(=O)(=O)NC(=O)NCC2CCCC2)cc1 (configuration not stated) | 0.35 nM | 7 nM | > 3 mg/kg | – | –
6 | CCCCc1nc(SC)c(C(=O)CS(=O)(=O)c2ccc(F)cc2)n1Cc1ccc(-c2ccccc2S(=O)(=O)NC(=O)NCc2ccccc2)cc1 | 0.06 nM | 0.8 nM | > 3 mg/kg | 0.12 mg/kg | –
7 | CCCCc1nc(SC)c(C(=O)O)n1Cc1ccc(-c2ccccc2S(=O)(=O)NC(=O)NCCC)cc1 | – | 920 nM | – | – | –
8 | CCc1nc(SC)c(C(=O)C[S+]([O-])c2ccccc2)n1Cc1ccc(-c2ccccc2S(=O)(=O)NC(=O)NCc2ccccc2)cc1 (configuration not stated) | 0.07 nM | 1.5 nM | 2 mg/kg | 0.1 mg/kg | –
9 | CCCCc1nc(SC)c(C(=O)C(CCC)S(=O)(=O)c2ccccc2)n1Cc1ccc(-c2ccccc2S(=O)(=O)NC(=O)NCc2ccccc2)cc1 (configuration not stated) | 1.8 nM | 180 nM | – | – | –

Further lines, with some results ahead:

Row | IC50 [3] | IC50 [4] | SMILES | ED50 (Rattus norvegicus [1]) | ED50 (Rattus norvegicus [2]) | ID50 (Rattus norvegicus [1])
10 | 0.08 nM | 2.8 nM | CCCc1nc(SC)c(C(=O)C[S+]([O-])c2ccccc2)n1Cc1ccc(-c2ccccc2S(=O)(=O)NC(=O)NCc2ccccc2)cc1 (configuration not stated) | 0.8 mg/kg | 0.04 mg/kg | –
11 | 0.2 nM | 93 nM | CCCc1nc(SC)c(C(=O)CSc2ccccc2)n1Cc1ccc(-c2ccccc2S(=O)(=O)NC(=O)NCc2ccccc2)cc1 | – | – | –
12 | 0.2 nM | 114 nM | CCCCc1nc(SC)c(C(=O)CC(=O)c2ccccc2)n1Cc1ccc(-c2ccccc2S(=O)(=O)NC(=O)NCc2ccccc2)cc1 | – | – | –
13 | 0.1 nM | 2.1 nM | CCCc1nc(SC)c(C(=O)CS(=O)(=O)c2ccc(OC)cc2)n1Cc1ccc(-c2ccccc2S(=O)(=O)NC(=O)NCc2ccccc2)cc1 | 2 mg/kg | 0.07 mg/kg | –
14 | 0.09 nM | 2.7 nM | CCCc1nc(SC)c(C(=O)CS(=O)(=O)c2ccccc2)n1Cc1ccc(-c2ccccc2S(=O)(=O)NC(=O)NCc2ccccc2)cc1 | > 3 mg/kg | 0.04 mg/kg | –
15 | – | 17 nM | CCCCc1nc(SC)c(C(=O)O)n1Cc1ccc(-c2ccccc2S(=O)(=O)NC(=O)NCc2ccccc2)cc1 | – | – | –
16 | 0.3 nM | 110 nM | CCCc1nc(SC)c(C(=O)CC#N)n1Cc1ccc(-c2ccccc2S(=O)(=O)NC(=O)NCc2ccccc2)cc1 | – | – | –
17 | 0.08 nM | 30 nM | CCCc1nc(SC)c(C(C)=O)n1Cc1ccc(-c2ccccc2S(=O)(=O)NC(=O)NCc2ccccc2)cc1 | – | – | –
18 | 0.09 nM | 1 nM | CCCCc1nc(SC)c(C(=O)CC(=O)OCC)n1Cc1ccc(-c2ccccc2S(=O)(=O)NC(=O)NCc2ccccc2)cc1 | – | – | –
19 | 0.04 nM | 3 nM | CCCCc1nc(SC)c(C(=O)C[S+]([O-])c2ccccc2)n1Cc1ccc(-c2ccccc2S(=O)(=O)NC(=O)NCc2ccccc2)cc1 (configuration not stated) | 1.6 mg/kg | 0.12 mg/kg | –
20 | 0.08 nM | 5.8 nM | CCCCc1nc(SC)c(C(=O)CS(C)(=O)=O)n1Cc1ccc(-c2ccccc2S(=O)(=O)NC(=O)NCc2ccccc2)cc1 | 1.7 mg/kg | 0.04 mg/kg | –
21 | 0.3 nM | 15 nM | CCCCc1nc(SC)c(C(=O)C[S+](C)[O-])n1Cc1ccc(-c2ccccc2S(=O)(=O)NC(=O)NCc2ccccc2)cc1 (configuration not stated) | 0.7 mg/kg | 0.06 mg/kg | –
22 | 0.07 nM | 1.4 nM | CCCc1nc(SC)c(C(=O)C[S+]([O-])c2ccc(C)cc2)n1Cc1ccc(-c2ccccc2S(=O)(=O)NC(=O)NCc2ccccc2)cc1 (single isomer, unassigned; 7g) | 1.5 mg/kg | 0.03 mg/kg | –
23 | 0.03 nM | 4.2 nM | CCCc1nc(SC)c(C(=O)C[S+]([O-])c2ccc(C)cc2)n1Cc1ccc(-c2ccccc2S(=O)(=O)NC(=O)NCc2ccccc2)cc1 (single isomer, unassigned; 7h) | – | – | 1.5 mg/kg
